From ChEMBL document CHEMBL1148804, “Enzyme adaptation to inhibitor binding: a cryptic binding site in phenylethanolamine N-methyltransferase” (J Med Chem, 2007) come the findings set out here.

The test is filed under the species Homo sapiens. As to the kind of experiment: Ratio of Ki for wild type human PNMT to Ki for human PNMT K57 mutant.

On to `NS(=O)(=O)c1ccc2c(c1)CNCC2`, for which the Ratio Ki was 0.02.
